From patent US8486381B2, “Methods of modulating intestinal fluid balance” (Amgen Inc., priority 2005, dated 2013)

Test system: cyclic GMP
Test: Secretagogue-stimulated cyclic GMP accumulation in colonic crypt cell suspensions
Format: cell-based

## [Ca+2] [Ca^2+]
  Effect on Guanylin or STa induced cyclic GMP production: attenuates
